Legend:
[1] = system: SD rats; test: SD rat carrageenan acute inflammation model; format: in vivo; conditions: for Changes in Foot Swelling Rate (Mean ± SEM) / Foot Swelling Degrees (Mean ± SEM): SD rat carrageenan
Method: Using an electronic caliper for accuracy, the thickness of the rat's footpad was measured. Rats were then restrained, and 100 μl of 1% carrageenan was subcutaneously injected into the right hind footpad to induce inflammation, thereby establishing an acute inflammation model using carrageenan. Each compound was administered in advance according to the respective dosing time points. The swelling of the rat's foot was measured at various time points: before modeling (0 h) and after modeling (2, 4, 7 h). A comparison was made between footpad swelling before and after modeling. […] The results of the carrageenan-induced acute inflammation model experiment are depicted in FIG. 1.

[2] = molecular target: T1, SSTR4 (Homo sapiens, UniProt P31391); test: FLIPR assay for agonists, HEK293/Gα15/SSTR4 cells; format: cell-based; conditions: read-out: SSTR4 Agonist Activity in FLIPR Assay EC50
T1 construct: host or cells: HEK293/Gα15/SSTR4
Method: The study was carried out at HD Biosciences (Shanghai, China) according to the following steps.
Step 1: Test compounds were diluted to a 400×stock solution in DMSO in a 384-well plate.
Step 2: 1 μL of the compound solution was transferred from Step 1 to 79 μL of assay buffer, creating a 5×working solution in the 384-well plate using the Bravo method.
Step 3: HEK293/Gα15/SSTR1-5 cells were cultured in DMEM medium (10% FBS).
Step 4: When cells reached 80% confluence, the cells were separated using 0.25% trypsin-EDTA.
Step 5: The cell density was measured and the cells diluted to 1×10^6/mL using DMEM (10% FBS).
Step 6: 30 μL of cells were dispensed into each well of a Matrigel-coated 384-well plate (Corning 3764#) using a multi-channel pipette (30,000 cells per well) and cultured for 20-24 hours at 37° C. and 5% CO2.
Step 7: 10 μL of dye was added to each well in the cell plate prepared in Step 6.
Step 8: The dye and cells were incubated in the dark at 37° C. and 5% CO2 for 1 hour.
Step 9: After 1 hour, the FLIPR program was loaded, the pipette tips placed cell plate and compound plate (from Step 2) into the machine, and the run button was pressed. The program added 10 μL to 40 μL to the cell plate. FLIPR was used to read the plate at room temperature according to the specified settings and the data was saved.

[3] = system: SD rats; test: SD rat chronic constriction injury (CCI) model; format: in vivo; conditions: mechanical pain threshold 1, 2, 4 h post-administration, compound 8 single subcutaneous injection
Source text: This model involves the use of a non-absorbable 5-0 suture to loosely ligate the sciatic nerve, causing slight compression of its outer sheath. Mechanical compression by the suture induces axonal damage, leading to abnormal discharge. Additionally, the local stimulation from the ligature induces the release of inflammatory mediators.
Furthermore, CCI selectively damages the larger myelinated fibers of the sciatic nerve while preserving most of the unmyelinated C fibers responsible for transmitting pain.
After initial screening, rats are sequentially numbered and randomly assigned to groups based on the numbering, using a random grouping method. Experimental groups are established based on trial conditions.

[4] = Metabolic stability in liver microsomes (human); format: in vitro ADME
Method: Buffers A-C were prepared for use in the metabolic study. The buffers were as follows: Buffer A: 1.0 L of 0.1 M monobasic Potassium Phosphate buffer containing 1.0 mM EDTA; Buffer B: 1.0 L of 0.1 M Dibasic Potassium Phosphate buffer containing 1.0 mM EDTA; and Buffer C: 0.1 M Potassium Phosphate buffer, 1.0 mM EDTA, pH 7.4 by titrating 700 mL of buffer B with buffer A while monitoring with the pH meter.
Ketanserin was used as the reference compound. Reference compound and test compound spiking solutions (500 μM spiking solution) were prepared by adding 10 μL of 10 mM DMSO stock solution into 190 μL ACN. 1.5 μL of 500 μM spiking solution (0.75 mg/mL) and 18.75 μL of 20 mg/mL liver microsomes were added into 479.75 μL of Buffer C on ice.
A 6 mM NADPH stock solution was prepared by dissolving an appropriate amount of NADPH into buffer C. 30 μL of 1.5 μM spiking solution containing 0.75 mg/mL microsomes solution was dispensed to the assay plates designated for different time points (0-, 5-, 15-, 30-, 45-min) on ice. […] All the other plates were pre-incubated at 37° C. for 5 minutes. 15 μL of 6 mM NADPH stock solution was added to the plates to start the reaction and time. At 5-min, 15-min, 30-min, and 45-min, 135 μL of ACN containing internal standard were added to the wells of corresponding plates, respectively, to stop the reaction. […]

[5] = Chemical stability in buffer; format: physicochemical; conditions: PBS(Ph 7.4) 10 um, 37° C.; read-out: Chemical Stability T½
Method: 1 mM test compound spiking solution (spiking solution A) was prepared by adding 10 μL of 10 mM a test compound stock solution to 90 μL of DMSO. 396 μL of buffer were added into tubes designated for different time points. The samples were pre-warmed at 37° C. for 10 minutes. 4 μL of spiking solution A was added into the wells containing 396 μL of buffer that were designated as 0 min, 15 min, 45 min, or 60 min. The timer was started after the addition of the spiking solution. At each time point, 1200 μL of acetonitrile (ACN) containing an internal standard was added to the tubes. The samples were centrifuged at 10,000 rpm for 5 minutes and 100 μL of the supernatant was removed and analyzed by for LC-MS/MS analysis.

[6] = Hepatocyte stability; conditions: rat, hepatocytes
Method: Vials with hepatocytes were removed from a liquid nitrogen storage unit and immediately placed in a 37±1° C. shaking water bath for 2 min±15 sec. The hepatocytes were poured into 50 mL of hepatocytes thawing medium, mixed gently, and centrifuged at 500 rpm for 3 minutes. After centrifugation, the supernatant was carefully aspirated without disturbing the pellet. 10× the volume of pre-warmed KHB buffer (Krebs-Henseleit buffer, Sigma Cat #K3753-10X1L) with 5.6 g/L HEPES was used to resuspend the cell pellet. The pellet mixture was centrifuged at 500 rpm for 3 minutes, aspirated, and the supernatant discarded without disturbing the cell pellet. The cell viability and yield were determined. The hepatocytes were counted, and the cell suspensions were diluted to the appropriate cell density. The viable cell density was 2×10^6 cells/mL. The hepatocyte solution was placed on ice until it was used.
Two dosing solutions of prewarmed KHB (1% DMSO) were prepared. 200 μM spiking solution was prepared by adding 20 μL of substrates stock solution (10 mM) into 980 μL of DMSO. Two dosing solutions were prepared by adding 10 μL of 200 μM spiking solution into 990 μL of KHB (2 μM after dilution). The dosing solution was centrifuged at 5594 g for 15 min (Thermo Multifuge×3R). 50 μL of pre-warmed 2×dosing solution was added to the wells designated for the different time points. […] After the addition of the hepatocytes, the timer was started. The assay was placed in an incubator at 37° C. 100 μL of ACN containing IS was added to the wells designed for 0 min, the wells were mixed gently, then 50 μL of pre-warmed hepatocytes solution (2×10^6 cells/mL) was added. The wells were sealed. […] Next, the wells were sealed. After quenching, the plates were shaken on a vibrator (IKA, MTS 2/4) for 10 min at 600 rpm. The plate was sonicated for 2 min and centrifuged at 5594 g for 15 min (Thermo Multifuge×3R). 50 μL of the supernatant was transferred from each well into a 96-well sample plate containing 50 μL of ultra pure water (Millipore, ZMQS50F01) for LC/MS analysis.

T1 sequence (P31391 whole entry): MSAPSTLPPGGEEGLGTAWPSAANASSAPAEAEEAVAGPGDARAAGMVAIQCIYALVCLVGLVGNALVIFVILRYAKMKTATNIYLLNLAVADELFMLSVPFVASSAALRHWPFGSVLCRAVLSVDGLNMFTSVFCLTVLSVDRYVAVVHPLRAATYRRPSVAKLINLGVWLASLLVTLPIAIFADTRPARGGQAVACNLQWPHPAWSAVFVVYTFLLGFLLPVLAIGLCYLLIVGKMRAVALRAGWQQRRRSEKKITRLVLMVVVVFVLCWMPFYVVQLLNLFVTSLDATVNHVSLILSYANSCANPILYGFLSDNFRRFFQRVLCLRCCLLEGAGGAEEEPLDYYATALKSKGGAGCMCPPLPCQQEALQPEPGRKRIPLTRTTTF

| Structure (SMILES) | Changes in Foot Swelling Rate (Mean ± SEM) ([1]; 0 h (before modeling)) [%] | Foot Swelling Degrees (Mean ± SEM) ([1]; 0 h (before modeling)) [mm] | Changes in Foot Swelling Rate (Mean ± SEM) ([1]; 2 h after modeling) [%] | Foot Swelling Degrees (Mean ± SEM) ([1]; 2 h after modeling) [mm] | Changes in Foot Swelling Rate (Mean ± SEM) ([1]; 4 h after modeling) [%] | Foot Swelling Degrees (Mean ± SEM) ([1]; 4 h after modeling) [mm] | Changes in Foot Swelling Rate (Mean ± SEM) ([1]; 7 h after modeling) [%] | Foot Swelling Degrees (Mean ± SEM) ([1]; 7 h after modeling) [mm] | Anti-inflammatory effect in carrageenan model ([1]; single subcutaneous injection of 30 mg/kg, SD rats) | EC50 [2] [nM] | Effect on neuropathic pain in CCI model [3] | CLint scaled at 1 μM ([4]; pH 7.4) [mL/min/kg] | half-life at 1 μM ([4]; pH 7.4, read-out: Metabolic stability T½) [h] | half-life at 10 μM [5] [h] | CLint scaled at 1 μM [6] [mL/min/kg] | half-life at 1 μM [6] [h] |
| --- | --- | --- | --- | --- | --- | --- | --- | --- | --- | --- | --- | --- | --- | --- | --- | --- |
| CC(C)(NC(=O)[C@H]1[C@@H]2CNC[C@H]1C2)c1ncc2c(Br)cccn12 [Compound 8, (1R,5S,6r)-N-(2-(8-bromoimidazo[1,5-a]pyridin-3-yl)propan-2-yl)-3-azabicyclo[3.1.1]heptane-6-carboxamide] | 0 | 4.02 ± 0.09 | 36.28 ± 5.75 | 5.51 ± 0.13 | 42.25 ± 2.63 | 5.78 ± 0.05 | 34.30 ± 4.17 | 5.44 ± 0.11 | demonstrated anti-inflammatory tendencies | 3.33 | significantly affected the SD rat CCI model | 29.5 | 1.4 | 81.3 | – | – |
| CC(C)(NC(=O)[C@H]1[C@@H]2CNC[C@H]1C2)c1nc(C2CC2)c2ccccn12 [Compound 9, (1R,5S,6r)-N-(2-(1-cyclopropylimidazo[1,5-a]pyridin-3-yl)propan-2-yl)-3-azabicyclo[3.1.1]heptane-6-carboxamide] | – | – | – | – | – | – | – | – | – | – | – | – | – | – | 3.17 | 17.1 |

From US20240174693A1, “SOMATOSTATIN RECEPTOR SUBTYPE 4 (SSTR4) AGONISTS AND THEIR APPLICATIONS” (Humanwell Pharmaceutical US, priority 2022, published 2024)
